Measured values reported in PubChem BioAssay (NCI).
Where “and” joins values, the source holds several entries; their conditions need not be identical. Equal entries are not always repeated.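 Values below derive from 48-hour exposures of cells grown in 96-well plates, with endpoints linearly interpolated between the two concentrations bracketing the appropriate inhibition level. GI50 marks 50% less growth. TGI is the concentration that stops growth completely.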

Experiments:
Experiment in all cases: NCI-60 cell line screen, 48 h
[1] = system: 786-0 renal
[2] = system: A498 renal
[3] = system: A549 NSCLC
[4] = system: ACHN renal
[5] = system: BT-549 breast
[6] = system: CAKI-1 renal
[7] = system: COLO 205 colon
[8] = system: DU-145 prostate
[9] = system: EKVX NSCLC
[10] = system: HCC-2998 colon
[11] = system: HCT-116 colon
[12] = system: HCT-15 colon
[13] = system: HL-60(TB) leukemia
[14] = system: HOP-62 NSCLC
[15] = system: HOP-92 NSCLC
[16] = system: HS 578T breast
[17] = system: HT29 colon
[18] = system: IGROV1 ovarian
[19] = system: K-562 leukemia
[20] = system: KM12 colon
[21] = system: LOX IMVI melanoma
[22] = system: M14 melanoma
[23] = system: MALME-3M melanoma
[24] = system: MCF7 breast
[25] = system: MDA-MB-231 breast
[26] = system: MDA-MB-435
[27] = system: MDA-N
[28] = system: MOLT-4 leukemia
[29] = system: NCI-H226 lung
[30] = system: NCI-H23 lung
[31] = system: NCI-H460 lung
[32] = system: NCI-H522 lung
[33] = system: NCI/ADR-RES ovarian
[34] = system: OVCAR-3 ovarian
[35] = system: OVCAR-4 ovarian
[36] = system: OVCAR-5 ovarian
[37] = system: OVCAR-8 ovarian
[38] = system: PC-3 prostate
[39] = system: RPMI-8226 leukemia
[40] = system: RXF 393 renal
[41] = system: SF-268 CNS
[42] = system: SF-295 CNS
[43] = system: SF-539 CNS
[44] = system: SK-MEL-2 melanoma
[45] = system: SK-MEL-28 melanoma
[46] = system: SK-MEL-5 melanoma
[47] = system: SK-OV-3 ovarian
[48] = system: SN12C renal
[49] = system: SNB-19 CNS
[50] = system: SNB-75 CNS
[51] = system: SR leukemia
[52] = system: SW-620 colon
[53] = system: T-47D breast
[54] = system: TK-10 renal
[55] = system: U251 CNS
[56] = system: UACC-257 melanoma
[57] = system: UACC-62 melanoma
[58] = system: UO-31 renal

CCc1nc(N)nc(N)c1-c1ccc(Cl)cc1
GI50 [1]: 5.89 µM
TGI [1]: > 100 µM
GI50 [2]: 24.1 µM
TGI [2]: > 100 µM and 42.4 µM
GI50 [3]: 2.23 µM
TGI [3]: > 100 µM
TGI [4]: > 100 µM
TGI [5]: > 100 µM
GI50 [6]: 6.34 µM
TGI [6]: > 100 µM
TGI [7]: > 100 µM
GI50 [8]: 13.2 µM
TGI [8]: > 100 µM
GI50 [9]: 5.7 µM
TGI [9]: > 100 µM
TGI [10]: > 100 µM and 25.7 µM
GI50 [11]: 2.85 µM
TGI [11]: > 100 µM
GI50 [12]: 4.74 µM
TGI [12]: > 100 µM
GI50 [13]: 6.67 µM
TGI [13]: > 100 µM
GI50 [14]: 26.7 µM
TGI [14]: > 100 µM
GI50 [15]: 17.4 µM
TGI [15]: > 100 µM
GI50 [16]: > 100 µM
TGI [16]: > 100 µM
TGI [17]: > 100 µM
GI50 [18]: 11.4 µM
TGI [18]: > 100 µM
TGI [19]: > 26.5 µM
GI50 [20]: 16.1 µM
TGI [20]: > 100 µM
GI50 [21]: 2.82 µM
TGI [21]: > 100 µM
TGI [22]: > 100 µM
GI50 [23]: 59.3 µM
TGI [23]: > 100 µM and 99.6 µM
GI50 [24]: 15.3 µM
TGI [24]: > 100 µM
GI50 [25]: 34.2 µM
TGI [25]: > 100 µM
GI50 [26]: 4.6 µM
TGI [26]: > 100 µM
TGI [27]: > 100 µM
GI50 [28]: 25.6 µM
TGI [28]: > 100 µM
GI50 [29]: 47.9 µM
TGI [29]: > 100 µM
GI50 [30]: 7.62 µM
TGI [30]: > 100 µM
GI50 [31]: 1.73 µM
TGI [31]: > 100 µM
TGI [32]: > 100 µM
GI50 [33]: 5.93 µM
TGI [33]: > 100 µM
GI50 [34]: 36.3 µM
TGI [34]: > 100 µM
GI50 [35]: 60 µM
TGI [35]: > 100 µM
GI50 [36]: 31.7 µM
TGI [36]: > 100 µM
TGI [37]: > 100 µM
GI50 [38]: 5.21 µM
TGI [38]: > 100 µM
GI50 [39]: 56.6 µM
TGI [39]: > 100 µM
GI50 [40]: 22.6 µM
TGI [40]: > 100 µM
GI50 [41]: 6.89 µM
TGI [41]: > 100 µM
GI50 [42]: 3.17 µM
TGI [42]: 37.9 µM and > 100 µM
GI50 [43]: 9.43 µM
TGI [43]: > 100 µM
TGI [44]: > 100 µM
GI50 [45]: > 100 µM
TGI [45]: > 100 µM
GI50 [46]: 4.14 µM
TGI [46]: > 100 µM and 19.8 µM
GI50 [47]: 84.9 µM
TGI [47]: > 100 µM
GI50 [48]: 5.04 µM
TGI [48]: > 100 µM
GI50 [49]: 7.75 µM
TGI [49]: > 100 µM
GI50 [50]: > 100 µM
TGI [50]: > 100 µM
GI50 [51]: 18.7 µM
TGI [51]: > 100 µM
GI50 [52]: 3.99 µM
TGI [52]: > 100 µM
GI50 [53]: 45.5 µM
TGI [53]: > 100 µM
GI50 [54]: 88.3 µM
TGI [54]: > 100 µM
GI50 [55]: 5.65 µM
TGI [55]: > 100 µM
GI50 [56]: 10.3 µM
TGI [56]: > 100 µM
GI50 [57]: 3.93 µM
TGI [57]: > 100 µM
GI50 [58]: 14.5 µM
TGI [58]: > 100 µM
